pIC50: −log10 of the molar value. Several values for one entry are separate records, joined by “and”; a condition that tells them apart may be missing. Equal values may be shown once.
Assays:
Hsp104 [1] = molecular target: T1, Hsp104 (Saccharomyces cerevisiae, UniProt P31539); test: Luciferase disaggregation/reactivation assay, Hsp104 with ATP:ATPγS; format: biochemical, yeast
T1 construct: made in house; host or cells: E. coli BL21-DE3 RIL
Method: Luciferase reactivation was performed as described, [37]. To assemble aggregates, firefly luciferase (50 µM) in luciferase refolding buffer (LRB, 25 mM HEPES-KOH, 7.4, 150 mM KAOc, 10 mM MgAOc, 10 mM DTT) with 6 M urea was incubated at 30°C for 20 min. Luciferase was then rapidly diluted 100-fold into LRB, divided into 100 µL aliquots, snap frozen in liquid N2, and stored at −80°C. For reactivation assays, aggregated luciferase (50 nM) was incubated with Hsp104 (1 µM hexamer), plus 2.6 mM ATPγS, 2.6 mM ATP and an ATP regeneration system (1 mM creatine phosphate, 0.25 µM creatine kinase (Roche Applied Science)) for 90 minutes at 25°C. Luciferase assay system was purchased from Promega. Luciferase activity was assessed by luminescence measured on a Safire^2 microplate reader (Tecan, Männedorf, Switzerland). The half maximal inhibitory concentration (IC50) was calculating by fitting luciferase-refolding data at different Suramin concentrations with Prism (GraphPad Software, Inc., La Jolla, CA).

[2] = tested on: HAP (Hsp104 variant) with ClpP; test: FITC-casein degradation (substrate translocation) assay; format: biochemical; conditions: 25°C
Method: FITC-casein (0.1 µM) was incubated with HAP (1 µM hexamer) and ClpP (21 µM monomer) at 25°C. ATP ([…]) and an ATP-regenerating system were included in all reactions. Varying concentrations of Suramin (0, 25, or 100 µM) were included as noted. We monitored degradation of FITC-casein by measuring fluorescence (excitation 490 nm, emission 520 nm) using a Tecan Safire^2 microplate reader (Tecan, Männedorf, Switzerland).
Next, we established that Suramin hampers substrate translocation by Hsp104 using an engineered Hsp104 variant, HAP, which anchors to the bacterial peptidase ClpP to form a novel proteolytic system. Thus, HAP translocates fluorescein isothiocyanate (FITC)-casein for degradation by ClpP. Fluorescence increases as FITC is released from degraded casein and can be used as a surrogate for substrate translocation. […] Note that both the unfolding and translocation activities appear less sensitive to Suramin than disaggregase activity ( Figures 3B , 4A and 4B ). Thus, disaggregation of protein aggregates makes more stringent demands on the Hsp104 hexamer than the unfolding or translocation of soluble substrates. Altogether, we have established that Suramin greatly decreases Hsp104 ATPase activity, drastically impairs its capacity to refold luciferase and hinders its substrate unfolding and translocation activities.

Hsp104 [3] = molecular target: T1, Hsp104; test: Gel filtration of Hsp104 (hexamerization); design: species or system yeast; conditions: Suramin 100 µM, with or without ATP 1 mM
Method: Hsp104 was diluted into ATPase buffer with or without Suramin (100 µM) in the presence or absence of ATP (1 mM). The Hsp104 concentration was adjusted to 120 µM monomer and 20 µL of sample were fractionated by a Superdex 200 10/300 column (GE Healthcare Life Sciences, Piscataway, NJ) at room temperature and at a flow rate of 0.5 mL per minute in line with an Optilab T-rEX Refractive Interferometer (Wyatt Technologies, Santa Barbara, CA). Molecular weight markers were purchased from Bio-Rad Laboratories (Hercules, CA).

Hsp104^T317A = molecular target: T2, Hsp104^T317A (Saccharomyces cerevisiae, UniProt P31539, T317A); test: ATPase assay, Hsp104^T317A; format: biochemical, yeast; conditions: read-out: Hsp104^T317A ATPase activity relative to uninhibited protein
T2 construct: made in house; host or cells: E. coli BL21-DE3 RIL
T2 sequence (P31539 whole entry T317A): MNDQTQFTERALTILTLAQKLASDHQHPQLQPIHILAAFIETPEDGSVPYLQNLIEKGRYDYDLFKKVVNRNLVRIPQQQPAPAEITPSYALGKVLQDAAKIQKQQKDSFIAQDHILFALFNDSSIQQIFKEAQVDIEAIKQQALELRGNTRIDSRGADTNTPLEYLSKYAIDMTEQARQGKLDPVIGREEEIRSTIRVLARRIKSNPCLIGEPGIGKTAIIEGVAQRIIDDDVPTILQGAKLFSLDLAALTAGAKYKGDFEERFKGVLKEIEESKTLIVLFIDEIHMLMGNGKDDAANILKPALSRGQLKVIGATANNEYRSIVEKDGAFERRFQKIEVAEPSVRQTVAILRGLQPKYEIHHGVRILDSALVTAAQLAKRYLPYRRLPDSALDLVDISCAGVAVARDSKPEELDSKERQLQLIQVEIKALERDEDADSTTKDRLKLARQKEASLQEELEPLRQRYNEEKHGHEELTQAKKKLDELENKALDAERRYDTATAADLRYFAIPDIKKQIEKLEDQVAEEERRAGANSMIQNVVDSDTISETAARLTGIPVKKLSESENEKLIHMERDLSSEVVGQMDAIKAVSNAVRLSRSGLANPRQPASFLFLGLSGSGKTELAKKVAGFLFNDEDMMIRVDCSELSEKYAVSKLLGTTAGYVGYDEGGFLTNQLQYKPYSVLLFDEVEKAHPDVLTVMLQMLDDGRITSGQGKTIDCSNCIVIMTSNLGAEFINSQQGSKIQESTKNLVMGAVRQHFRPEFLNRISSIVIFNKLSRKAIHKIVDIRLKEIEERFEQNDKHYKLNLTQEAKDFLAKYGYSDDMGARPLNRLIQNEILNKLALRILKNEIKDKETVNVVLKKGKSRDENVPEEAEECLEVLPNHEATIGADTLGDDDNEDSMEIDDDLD
Method: Wild-type or mutant Hsp104 (0.25 µM monomer) in ATPase buffer (20 mM HEPES-KOH pH 7.4, 20 mM NaCl and 10 mM MgCl2) was incubated for 60 or 10 min at 25°C in the presence of ATP (1 mM) as noted. ATPase activity was assessed by the release of inorganic phosphate determined by using a malachite green phosphate detection kit (Innova).
Figure 7 Hsp104 variants respond differently to Suramin than Hsp104^WT. (A) Hsp104 variants (0.25 µM monomer) were incubated for 10 min with ATP (1 mM) and varying concentrations of Suramin. The amount of Pi produced was measured by absorbance at 635 nm. Absorbance values were normalized to the absorbance produced by each Hsp104 variant in the absence of inhibitor. Values represent mean ±S.D. (n = 6). (B) Urea-denatured firefly luciferase aggregates were incubated for 90 min at 25°C with Hsp104 variants (1 µM hexamer) plus 1∶1 mixtures of ATP and ATPγS (or ATP alone) and varying concentrations of Suramin. Luciferase reactivation was then determined and normalized to untreated disaggregase activity for each variant in the presence of ATPγS: ATP (or ATP alone). 1∶1 mixtures of ATP and ATPγS were used for Hsp104^WT and Hsp104^T317A, while ATP alone was used for Hsp104^A503V and Hsp104^N728A. Values represent mean ±S.D. (n = 6–12).

Δpdr5 yeast = test: [PSI+] propagation in Δpdr5 yeast; format: cell-based; conditions: Suramin 100 µM, data not shown

T1 sequence (P31539 whole entry): as the sequence (P31539 whole entry T317A) above, with A317T counted along it

**Q.** For `Cc1ccc(C(=O)Nc2ccc(S(=O)(=O)O)c3cc(S(=O)(=O)O)cc(S(=O)(=O)O)c23)cc1NC(=O)c1cccc(NC(=O)Nc2cccc(C(=O)Nc3cc(C(=O)Nc4ccc(S(=O)(=O)O)c5cc(S(=O)(=O)O)cc(S(=O)(=O)O)c45)ccc3C)c2)c1` [Suramin], which “Normalized Luciferase Refolding Activity” value (Hsp104 [1]; Figure 3D, Hsp104 alone (104), ATP:ATPγS 1:1, Suramin 25 µM) is on record?
**A.** 0.14

**Q.** What about the “Normalized Luciferase Refolding Activity” value (Hsp104 [1]; Figure 3D, Hsp104 alone (104), ATP:ATPγS 1:1, Suramin 100 µM) of the same compound?
**A.** 0.00

**Q.** And the “Hsp104^WT refolding activity” value (Hsp104 [1]; Suramin 1 µM)?
**A.** 100%

**Q.** And the “Normalized Luciferase Refolding Activity” value (Hsp104 [1]; Suramin 1 µM, 90 min 25°C, ATP:ATPγS 1:1, Figure 3B)?
**A.** 0.99

**Q.** And the “Normalized Luciferase Refolding Activity” value (Hsp104 [1]; Suramin 5 µM, 90 min 25°C, ATP:ATPγS 1:1, Figure 3B)?
**A.** 0.63

**Q.** And the “Normalized Luciferase Refolding Activity” value (Hsp104 [1]; Suramin 10 µM, 90 min 25°C, ATP:ATPγS 1:1, Figure 3B)?
**A.** 0.50

**Q.** And the “Normalized Luciferase Refolding Activity” value (Hsp104 [1]; Suramin 25 µM, 90 min 25°C, ATP:ATPγS 1:1, Figure 3B)?
**A.** 0.14

**Q.** What about the Hsp104 refolding activity (Hsp104 [1]; Suramin 50 µM) of the same compound?
**A.** practically inactive

**Q.** What about the “Normalized Luciferase Refolding Activity” value (Hsp104 [1]; Suramin 50 µM, 90 min 25°C, ATP:ATPγS 1:1, Figure 3B) of the same compound?
**A.** 0.03

**Q.** What about the “Effect on Hsp104 refolding of denatured luciferase” value (Hsp104 [1]; Suramin 100 µM) of the same compound?
**A.** completely ablated the ability of Hsp104 to refold denatured luciferase

**Q.** And the “Normalized Luciferase Refolding Activity” value (Hsp104 [1]; Suramin 100 µM, 90 min 25°C, ATP:ATPγS 1:1, Figure 3B)?
**A.** 0.00

**Q.** What about the pIC50 (Hsp104 [1]; fit of luciferase-refolding data, ATP:ATPγS 1:1, read-out: IC50, Hsp104^WT luciferase refolding) of the same compound?
**A.** ~5.00 and 5.00

**Q.** What about the “Effect on substrate translocation (FITC-casein degradation by HAP/ClpP)” value ([2]; Suramin 25 µM) of the same compound?
**A.** permits translocation activity equivalent to that by untreated HAP in conjunction with ClpP

**Q.** And the “Effect on substrate translocation (FITC-casein degradation by HAP/ClpP)” value ([2]; Suramin 100 µM)?
**A.** completely abolished substrate translocation

**Q.** And the “Effect on Hsp104 hexamerization (gel filtration elution profile)” value (Hsp104 [3])?
**A.** does not interfere with hexamerization

**Q.** What about the activity at 100 µM (Hsp104^T317A) of the same compound?
**A.** ~65%

**Q.** And the “Effect on [PSI+] propagation” value (Δpdr5 yeast)?
**A.** impaired neither
